Laboratory results as given in publication PMC11992225, “Antibacterial compounds against non-growing and intracellular bacteria” (npj Antimicrobials and Resistance, 2025).
≈ marks a conversion by molar mass, not a printed value. Where two headings read alike, the source gives them in different places.

Legend:
P. aeruginosa DSM1117 = test: MIC, standard microdilution assay, growing P. aeruginosa; type: cell-based, Pseudomonas aeruginosa
How it was run: (§1)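 Standard microdilution protocol, triplicate wells. For S. flexneri the growth medium is TSB. The other three strains are grown in HEPES-buffered (40 mM, pH 7.4) CA-MHB, and UPEC is also run at pH 5.5 in LPM containing 30 mM MES.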

S. flexneri 5a M90T = test: MIC in tryptic soy broth, S. flexneri; type: cell-based, Shigella flexneri; settings: for MIC: Shigella flexneri, 5AM90T, read-out: MIC (μM) TSB; for MIC (μM) TSB: S. flexneri, extracellular bacteria in TSB
How it was run: as §1

non-growing UPEC CFT073 = test: Dilution-regrowth assay (screen, hit validation, dose-response) on stationary-phase UPEC; type: cell-based, Escherichia coli; settings: for OD600 at 6hr, Mean: after dilution into drug-free medium; for Regrowth: OD600 after dilution into drug-free medium (mean): OD600 at 6h or 8h; for Regrowth, OD600 at 6h or 8h after dilution into drug-free medium: average
How it was run: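 Regrowth (OD600 after 6 h, 37 °C) of diluted non-growing CFT073, following 24 h compound treatment of 24 h stationary cultures, defines activity relative to untreated control. Screen at 20 µM, validation at 20, 10, 5 µM (duplicates), dose–response in three biological replicates fitted by five-parameter logistic.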

[1] = Pseudomonas aeruginosa, DSM1117, pH 7.4, read-out: MIC (μM) CA-MHB
[2] = E. coli in 1:4 CA-MHB (pH 7.4), 0.25 μM
[3] = E. coli in 1:4 CA-MHB (pH 7.4), 0.5 μM
[4] = E. coli in 1:4 CA-MHB (pH 7.4), 1 μM
[5] = E. coli in 1:4 CA-MHB (pH 7.4), 2.5 μM
[6] = E. coli in 1:4 CA-MHB (pH 7.4), 5 μM
[7] = E. coli in 1:4 CA-MHB (pH 7.4), 10 μM
[8] = E. coli in 1:4 CA-MHB (pH 7.4), 30 μM
[9] = E. coli in LPM (pH 5.5), 0.25 μM
[10] = E. coli in LPM (pH 5.5), 0.5 μM
[11] = E. coli in LPM (pH 5.5), 2.5 μM
[12] = Escherichia coli, pH 5.5, read-out: EC50 (regrowth inhibition curve, Fig. S4)
[13] = P. aeruginosa, CA-MHB pH 7.4, read-out: MIC (μM) CA-MHB
[14] = E. coli in 1:4 CA-MHB (pH 7.4), concentration 0.25
[15] = E. coli in 1:4 CA-MHB (pH 7.4), concentration 0.5
[16] = E. coli in 1:4 CA-MHB (pH 7.4), concentration 1
[17] = E. coli in 1:4 CA-MHB (pH 7.4), concentration 2.5
[18] = E. coli in 1:4 CA-MHB (pH 7.4), concentration 5
[19] = E. coli in 1:4 CA-MHB (pH 7.4), concentration 10
[20] = E. coli in 1:4 CA-MHB (pH 7.4), concentration 30
[21] = E. coli in LPM (pH 5.5), concentration 0.25
[22] = E. coli in LPM (pH 5.5), concentration 0.5
[23] = E. coli in LPM (pH 5.5), concentration 1
[24] = E. coli in LPM (pH 5.5), concentration 2.5
[25] = E. coli in LPM (pH 5.5), concentration 5
[26] = E. coli in LPM (pH 5.5), concentration 10
[27] = E. coli in LPM (pH 5.5), concentration 30
[28] = E. coli, LPM pH 5.5, regrowth delay of non-growing bacteria, 24 h treatment, OD600 6 h after 2500-fold dilution, read-out: EC50
[29] = Pseudomonas aeruginosa, DSM1117, P. aeruginosa, CA-MHB pH 7.4, read-out: MIC (μM) CA-MHB

Row | SMILES | MIC (P. aeruginosa DSM1117; [1]) [µM] | MIC (S. flexneri 5a M90T) [µM] | OD600 at 6hr, Mean (non-growing UPEC CFT073; [2]) | OD600 at 6hr, Mean (non-growing UPEC CFT073; [3]) | OD600 at 6hr, Mean (non-growing UPEC CFT073; [4]) | OD600 at 6hr, Mean (non-growing UPEC CFT073; [5]) | OD600 at 6hr, Mean (non-growing UPEC CFT073; [6]) | OD600 at 6hr, Mean (non-growing UPEC CFT073; [7]) | OD600 at 6hr, Mean (non-growing UPEC CFT073; [8]) | OD600 at 6hr, Mean (non-growing UPEC CFT073; [9]) | OD600 at 6hr, Mean (non-growing UPEC CFT073; [10]) | OD600 at 6hr, Mean (non-growing UPEC CFT073; E. coli in LPM (pH 5.5), 1 μM) | OD600 at 6hr, Mean (non-growing UPEC CFT073; [11]) | OD600 at 6hr, Mean (non-growing UPEC CFT073; E. coli in LPM (pH 5.5), 5 μM) | OD600 at 6hr, Mean (non-growing UPEC CFT073; E. coli in LPM (pH 5.5), 10 μM) | OD600 at 6hr, Mean (non-growing UPEC CFT073; E. coli in LPM (pH 5.5), 30 μM) | EC50 (non-growing UPEC CFT073; Escherichia coli, pH 5.5) [nM] | EC50 (non-growing UPEC CFT073; [12]) [nM] | EC50 (non-growing UPEC CFT073; Escherichia coli, pH 7.4) [nM] | MIC (P. aeruginosa DSM1117; [13]) [µM] | further results
1 | CS[C@H]1SC[C@H]2C(=O)N(C)[C@@H](C(C)C)C(=O)OC[C@@H](NC(=O)c3cnc4ccccc4n3)C(=O)N[C@@H](C)C(=O)N(C)[C@@H]1C(=O)N(C)[C@@H](C(C)C)C(=O)OC[C@@H](NC(=O)c1cnc3ccccc3n1)C(=O)N[C@@H](C)C(=O)N2C [Echinomycin] | > 80 | 4 (≈ 4.41 µg/mL) | 0.627 | 0.601 | 0.561 | 0.340 | 0.110 | 0.090 | 0.091 | 0.602 | 0.564 | 0.465 | 0.288 | 0.215 | 0.181 | 0.160 | 1530 | 1520 | 2400 | – | EC50 (non-growing UPEC CFT073; Escherichia coli, pH 7.4, read-out: EC50 (regrowth inhibition curve, Fig. S4)): 2390 nM
2 | Cn1c(COP(=O)(NCCBr)NCCBr)cnc1[N+](=O)[O-] [Evofosfamide] | > 160 | 32 (≈ 14.4 µg/mL) | 0.603 | 0.596 | 0.573 | 0.563 | 0.534 | 0.521 | 0.480 | 0.553 | 0.543 | 0.392 | 0.282 | 0.193 | 0.124 | 0.114 | 1540 | 1540 | 11600 | – | activity against non-growing UPEC in LPM (pH 5.5) compared to 1:4 CA-MHB (pH 7.4) (non-growing UPEC CFT073; regrowth delay and killing, Figs. 2 and 3): potentiated by the low pH
3 | CO[C@H]1/C=C/O[C@@]2(C)Oc3c(C)c(O)c4c(O)c(c(/C=N/N=C/N5CCCCC5)c(O)c4c3C2=O)NC(=O)/C(C)=C\C=C\[C@H](C)[C@H](O)[C@@H](C)[C@@H](O)[C@@H](C)[C@H](OC(C)=O)[C@@H]1C [FCE-22250] | – | – | – | – | – | – | – | – | – | – | – | – | – | – | – | – | – | – | – | >160 | MIC (P. aeruginosa DSM1117; P. aeruginosa, 1:4 diluted CA-MHB pH 7.4, read-out: MIC (μM) 1:4 CA-MHB): 10 µM (≈ 8.35 µg/mL); MIC (μM) TSB (S. flexneri 5a M90T): 16 µM (≈ 13.4 µg/mL); Regrowth: OD600 after dilution into drug-free medium (mean) (non-growing UPEC CFT073; [14]): 0.613; Regrowth: OD600 after dilution into drug-free medium (mean) (non-growing UPEC CFT073; [15]): 0.587; Regrowth: OD600 after dilution into drug-free medium (mean) (non-growing UPEC CFT073; [16]): 0.569; Regrowth: OD600 after dilution into drug-free medium (mean) (non-growing UPEC CFT073; [17]): 0.549; Regrowth: OD600 after dilution into drug-free medium (mean) (non-growing UPEC CFT073; [18]): 0.529; Regrowth: OD600 after dilution into drug-free medium (mean) (non-growing UPEC CFT073; [19]): 0.515; Regrowth: OD600 after dilution into drug-free medium (mean) (non-growing UPEC CFT073; [20]): 0.347; Regrowth: OD600 after dilution into drug-free medium (mean) (non-growing UPEC CFT073; [21]): 0.566; Regrowth: OD600 after dilution into drug-free medium (mean) (non-growing UPEC CFT073; [22]): 0.535; Regrowth: OD600 after dilution into drug-free medium (mean) (non-growing UPEC CFT073; [23]): 0.500; Regrowth: OD600 after dilution into drug-free medium (mean) (non-growing UPEC CFT073; [24]): 0.418; Regrowth: OD600 after dilution into drug-free medium (mean) (non-growing UPEC CFT073; [25]): 0.299; Regrowth: OD600 after dilution into drug-free medium (mean) (non-growing UPEC CFT073; [26]): 0.206; Regrowth: OD600 after dilution into drug-free medium (mean) (non-growing UPEC CFT073; [27]): 0.134; EC50 (non-growing UPEC CFT073; [28]): 3970 nM; EC50 (non-growing UPEC CFT073; LPM pH 5.5 (red curve), medium assigned by comparison with Dataset 1, read-out: EC50 (regrowth inhibition curve, Fig. S4)): 3450 nM
4 | N#Cc1c(N2C[C@@H]3NCCO[C@H]3C2)c(F)cc2c(=O)c(C(=O)O)cn(C3CC3)c12 [Finafloxacin] | – | – | – | – | – | – | – | – | – | – | – | – | – | – | – | – | – | – | – | 20 (≈ 7.97 µg/mL) | MIC (μM) TSB (S. flexneri 5a M90T): 0.125 µM (≈ 0.0498 µg/mL); EC50 (non-growing UPEC CFT073; [28]): 13600 nM; EC50 (non-growing UPEC CFT073; E. coli, pH 7.4, regrowth delay of non-growing bacteria, 1:4 CA-MHB, 24 h treatment, OD600 6 h after 2500-fold dilution, read-out: EC50): 7190 nM
5 | CC1COc2c(N3CCN(C)CC3)c(F)cc3c(=O)c(C(=O)O)cn1c23 (centres unmarked) [Ofloxacin] | – | 0.125 (≈ 0.0452 µg/mL) | – | – | – | – | – | – | – | – | – | – | – | – | – | – | – | – | – | – | MIC (P. aeruginosa DSM1117; [29]): 8 µM (≈ 2.89 µg/mL); Regrowth, OD600 at 6h or 8h after dilution into drug-free medium (non-growing UPEC CFT073; [14]): 0.670; Regrowth, OD600 at 6h or 8h after dilution into drug-free medium (non-growing UPEC CFT073; [15]): 0.686; Regrowth, OD600 at 6h or 8h after dilution into drug-free medium (non-growing UPEC CFT073; [16]): 0.685; Regrowth, OD600 at 6h or 8h after dilution into drug-free medium (non-growing UPEC CFT073; [17]): 0.648; Regrowth, OD600 at 6h or 8h after dilution into drug-free medium (non-growing UPEC CFT073; [18]): 0.610; Regrowth, OD600 at 6h or 8h after dilution into drug-free medium (non-growing UPEC CFT073; [19]): 0.563; Regrowth, OD600 at 6h or 8h after dilution into drug-free medium (non-growing UPEC CFT073; [20]): 0.271; Regrowth, OD600 at 6h or 8h after dilution into drug-free medium (non-growing UPEC CFT073; [21]): 0.591; Regrowth, OD600 at 6h or 8h after dilution into drug-free medium (non-growing UPEC CFT073; [22]): 0.585; Regrowth, OD600 at 6h or 8h after dilution into drug-free medium (non-growing UPEC CFT073; [23]): 0.589; Regrowth, OD600 at 6h or 8h after dilution into drug-free medium (non-growing UPEC CFT073; [24]): 0.574; Regrowth, OD600 at 6h or 8h after dilution into drug-free medium (non-growing UPEC CFT073; [25]): 0.582; Regrowth, OD600 at 6h or 8h after dilution into drug-free medium (non-growing UPEC CFT073; [26]): 0.564; Regrowth, OD600 at 6h or 8h after dilution into drug-free medium (non-growing UPEC CFT073; [27]): 0.570
6 | CO[C@H]1/C=C/O[C@@]2(C)Oc3c(C)c(O)c4c(O)c(c(/C=N/N5CCN(C)CC5)c(O)c4c3C2=O)NC(=O)/C(C)=C\C=C\[C@H](C)[C@H](O)[C@@H](C)[C@@H](O)[C@@H](C)[C@H](OC(C)=O)[C@@H]1C [Rifampicin] | – | 8 (≈ 6.58 µg/mL) | – | – | – | – | – | – | – | – | – | – | – | – | – | – | – | – | – | – | MIC (P. aeruginosa DSM1117; [29]): 80 µM (≈ 65.8 µg/mL); EC50 (non-growing UPEC CFT073; Escherichia coli, E. coli, LPM pH 5.5, regrowth delay of non-growing bacteria, 24 h treatment, OD600 6 h after 2500-fold dilution, read-out: EC50): 950 nM; EC50 (non-growing UPEC CFT073; Escherichia coli, LPM pH 5.5 (red curve), medium assigned by comparison with Dataset 1, read-out: EC50 (regrowth inhibition curve, Fig. S4)): 970 nM
